1 molecule from patent publication US20080267948A1, “Croos-B Structure Binding Compounds” (priority 2005, published 2008) can be followed below.

One assay concerns the target T1, tPA/plasminogen (Homo sapiens, UniProt P00750).
T1 construct: purchased Boehringer Ingelheim Actilyse
The experiment in a line: tPA/plasminogen activation by pre-formed misfolded OVA in the presence of compounds. The assay is classed as biochemical. The conditions noted are these: 80-fold or 160-fold diluted compound and misfolded OVA stocks of 1 mg/ml. As to the method: […] Negative control was buffer without OVA. […] In addition, it was assessed whether the compounds interfere with absorbance readings at 405 nm, with converted chromogenic substrate. […] The yellow solution is divided over wells of an ELISA plate. […] Signals are compared and related to the control.

The next assay addresses tPA (Homo sapiens, UniProt P00750). The experiment in a line: tPA serine protease activity with OVA heated in the presence of compounds (substrate S-2765). Set-up: purchased Boehringer Ingelheim Actilyse. The following applies: OVA heated with 1 mg/ml compound, 80-, 160- or 320-fold diluted, 100 nM tPA. The assay is classed as biochemical. As to the method:
For this purpose, the influence of the compounds on heat-denaturation of OVA was analyzed (see above: Thioflavin T fluorescence measurements). Heated OVA at 1 mg/ml in PBS in the presence or absence of 1 mg/ml of the twelve compounds listed in Table 7 in PBS/DMSO (final DMSO concentration 1%) was used 80-fold or 160-fold or 320-fold diluted (final heated OVA concentration and compound concentration was 12.5 or 6.3 or 3.1 μg/ml; final DMSO concentration was 0.013% and 0.006% and 0.003%).

Chain of tPA (P00750 36-562): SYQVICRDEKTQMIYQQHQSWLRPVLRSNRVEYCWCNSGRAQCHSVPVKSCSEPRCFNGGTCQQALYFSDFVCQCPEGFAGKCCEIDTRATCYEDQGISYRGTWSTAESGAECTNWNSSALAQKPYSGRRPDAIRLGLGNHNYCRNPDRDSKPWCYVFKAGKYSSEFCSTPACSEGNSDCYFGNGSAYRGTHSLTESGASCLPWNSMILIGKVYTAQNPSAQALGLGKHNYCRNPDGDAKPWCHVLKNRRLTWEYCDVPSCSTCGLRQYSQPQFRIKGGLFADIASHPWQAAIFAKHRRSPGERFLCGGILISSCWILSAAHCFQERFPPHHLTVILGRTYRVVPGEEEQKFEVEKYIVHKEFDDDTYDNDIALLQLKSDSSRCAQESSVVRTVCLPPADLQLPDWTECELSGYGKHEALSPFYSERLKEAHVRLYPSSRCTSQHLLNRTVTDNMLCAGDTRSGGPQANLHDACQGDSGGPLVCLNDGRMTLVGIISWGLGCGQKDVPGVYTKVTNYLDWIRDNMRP
T1 sequence (P00750 36-562): as above

As to `O=c1oc2c(O)c(O)cc3c(=O)oc4c(O)c(O)cc1c4c23` [compound 117, Ellagic acid hydrate], on tPA/plasminogen, the “influence on tPA/plasminogen activation by pre-formed misfolded OVA” value was “Full block of tPA/plasminogen activation by misfolded OVA”. Also, the “influence on tPA protease activity of OVA heated in the presence of compound” value at tPA is recorded as “Potentiation of tPA protease activity”.
